From the OligoGym collection
Oligonucleotides are written 5' to 3', each unit as a sugar letter and its base; * is a phosphorothioate linkage, no mark a phosphodiester; rarer units and linkages stand in square brackets, end groups in braces. Plain capitals give the bases only. d = 2'-deoxy (DNA); r = 2'-OH (RNA)

The substances below were run against UBE2S (assay: reporter assay of Huesken 2005). Conditions: siRNA.
Further: test concentration or dose not given here.

| Substance | normalised inhibition (eCFP-eYFP dual reporter) |
| --- | --- |
| sense rArUrGrCrUrGrGrCrGrArGrCrGrCrGrArUrArAdTdT / antisense rUrUrArUrCrGrCrGrCrUrCrGrCrCrArGrCrArUdGdC | 71.3% |
| sense rArUrGrGrCrArUrCrArArGrGrUrCrUrUrUrCrCdTdT / antisense rGrGrArArArGrArCrCrUrUrGrArUrGrCrCrArUdCdG | 56.5% |
| sense rCrArArGrUrGrCrCrUrGrCrUrGrArUrCrCrArCdTdT / antisense rGrUrGrGrArUrCrArGrCrArGrGrCrArCrUrUrGdAdT | 63.5% |
| sense rCrArCrCrCrArArGrGrGrCrUrArCrUrUrCrCrUdTdT / antisense rArGrGrArArGrUrArGrCrCrCrUrUrGrGrGrUrGdGdG | 81.5% |
| sense rCrCrArCrCrCrArArGrGrGrCrUrArCrUrUrCrCdTdT / antisense rGrGrArArGrUrArGrCrCrCrUrUrGrGrGrUrGrGdGdG | 54.7% |
| sense rCrCrArCrCrCrGrArUrGrGrCrArUrCrArArGrGdTdT / antisense rCrCrUrUrGrArUrGrCrCrArUrCrGrGrGrUrGrGdGdT | 47.2% |
| sense rCrCrCrArArCrGrArGrGrArGrGrArCrCrUrCrAdTdT / antisense rUrGrArGrGrUrCrCrUrCrCrUrCrGrUrUrGrGrGdAdA | 54% |
| sense rCrCrCrGrUrCrUrGrCrUrCrArCrArGrArGrArUdTdT / antisense rArUrCrUrCrUrGrUrGrArGrCrArGrArCrGrGrGdCdC | 70.1% |
| sense rCrCrCrUrGrArGrGrGrGrArCrCrCrCrArUrArUdTdT / antisense rArUrArUrGrGrGrGrUrCrCrCrCrUrCrArGrGrGdCdC | 46.5% |
| sense rCrCrGrArArCrGrUrGrGrGrCrGrCrCrArArUrGdTdT / antisense rCrArUrUrGrGrCrGrCrCrCrArCrGrUrUrCrGrGdGdT | 44.9% |
| sense rCrCrUrGrArGrGrGrGrArCrCrCrCrArUrArUrGdTdT / antisense rCrArUrArUrGrGrGrGrUrCrCrCrCrUrCrArGrGdGdC | 25.2% |
| sense rCrCrUrGrCrUrCrUrUrGrGrArGrArArCrUrArCdTdT / antisense rGrUrArGrUrUrCrUrCrCrArArGrArGrCrArGrGdCdG | 70.7% |
| sense rCrGrArGrUrCrUrGrCrArCrUrCrArArCrGrArGdTdT / antisense rCrUrCrGrUrUrGrArGrUrGrCrArGrArCrUrCrGdGdG | 70.6% |
| sense rCrGrCrArGrArCrCrCrArCrCrCrGrArUrGrGrCdTdT / antisense rGrCrCrArUrCrGrGrGrUrGrGrGrUrCrUrGrCrGdGdT | 51.5% |
| sense rCrGrGrUrCrGrGrGrCrCrCrUrGrGrCrCrArGrUdTdT / antisense rArCrUrGrGrCrCrArGrGrGrCrCrCrGrArCrCrGdGdC | 41.5% |
| sense rCrGrUrCrArArCrGrUrGrCrUrCrArArGrArGrGdTdT / antisense rCrCrUrCrUrUrGrArGrCrArCrGrUrUrGrArCrGdCdA | 63.1% |
| sense rCrUrCrCrArCrCrGrArCrCrCrUrGrGrGrGrCrCdTdT / antisense rGrGrCrCrCrCrArGrGrGrUrCrGrGrUrGrGrArGdGdA | 44% |
| sense rCrUrCrGrGrGrCrCrCrGrUrCrUrGrCrUrCrArCdTdT / antisense rGrUrGrArGrCrArGrArCrGrGrGrCrCrCrGrArGdCdT | 55% |
| sense rCrUrGrCrGrUrCrArArCrGrUrGrCrUrCrArArGdTdT / antisense rCrUrUrGrArGrCrArCrGrUrUrGrArCrGrCrArGdAdT | 67.8% |
| sense rCrUrGrCrUrCrArCrArGrArGrArUrCrCrArCrGdTdT / antisense rCrGrUrGrGrArUrCrUrCrUrGrUrGrArGrCrArGdAdC | 54.8% |
| sense rCrUrGrGrCrGrArGrCrGrCrGrArUrArArGrArAdTdT / antisense rUrUrCrUrUrArUrCrGrCrGrCrUrCrGrCrCrArGdCdA | 82.4% |
| sense rCrUrGrGrGrGrArArGrGrArCrUrUrCrCrCrUrGdTdT / antisense rCrArGrGrGrArArGrUrCrCrUrUrCrCrCrCrArGdCdA | 40.4% |
| sense rCrUrUrUrCrCrCrArArCrGrArGrGrArGrGrArCdTdT / antisense rGrUrCrCrUrCrCrUrCrGrUrUrGrGrGrArArArGdAdC | 33.9% |
| sense rGrArCrArCrGrUrArCrUrGrCrUrGrArCrCrArUdTdT / antisense rArUrGrGrUrCrArGrCrArGrUrArCrGrUrGrUrCdGdG | 85.5% |
| sense rGrArCrCrCrArCrCrCrGrArUrGrGrCrArUrCrAdTdT / antisense rUrGrArUrGrCrCrArUrCrGrGrGrUrGrGrGrUrCdTdG | 61.7% |
| sense rGrArGrGrArGrUrArUrGrCrArGrCrUrCrGrGrGdTdT / antisense rCrCrCrGrArGrCrUrGrCrArUrArCrUrCrCrUrCdGdT | 56.7% |

| Substance | normalised inhibition (eCFP-eYFP dual reporter) |
| --- | --- |
| sense rGrArGrGrGrCrCrCrUrGrArGrGrGrGrArCrCrCdTdT / antisense rGrGrGrUrCrCrCrCrUrCrArGrGrGrCrCrCrUrCdGdA | 44.6% |
| sense rGrArGrGrGrGrCrUrGrArGrGrGrUrCrCrCrArUdTdT / antisense rArUrGrGrGrArCrCrCrUrCrArGrCrCrCrCrUrCdCdC | 45% |
| sense rGrArGrUrArUrGrCrArGrCrUrCrGrGrGrCrCrCdTdT / antisense rGrGrGrCrCrCrGrArGrCrUrGrCrArUrArCrUrCdCdT | 53.4% |
| sense rGrArGrUrCrUrGrCrArCrUrCrArArCrGrArGrGdTdT / antisense rCrCrUrCrGrUrUrGrArGrUrGrCrArGrArCrUrCdGdG | 71.5% |
| sense rGrCrArCrUrCrArArCrGrArGrGrArGrGrCrGrGdTdT / antisense rCrCrGrCrCrUrCrCrUrCrGrUrUrGrArGrUrGrCdAdG | 48.5% |
| sense rGrCrArCrUrGrArArGrCrUrUrCrCrUrCrCrArCdTdT / antisense rGrUrGrGrArGrGrArArGrCrUrUrCrArGrUrGrCdCdA | 58.5% |
| sense rGrCrCrArGrUrGrGrCrArCrUrGrArArGrCrUrUdTdT / antisense rArArGrCrUrUrCrArGrUrGrCrCrArCrUrGrGrCdCdA | 57.9% |
| sense rGrCrCrCrArGrCrGrGrCrArGrGrGrCrCrGrArAdTdT / antisense rUrUrCrGrGrCrCrCrUrGrCrCrGrCrUrGrGrGrCdCdC | 42% |
| sense rGrCrCrUrCrCrCrCrArCrCrCrArArGrGrGrCrUdTdT / antisense rArGrCrCrCrUrUrGrGrGrUrGrGrGrGrArGrGrCdAdG | 46.3% |
| sense rGrCrCrUrGrCrUrCrUrUrGrGrArGrArArCrUrAdTdT / antisense rUrArGrUrUrCrUrCrCrArArGrArGrCrArGrGrCdGdG | 76% |
| sense rGrCrUrGrGrGrGrArArGrGrArCrUrUrCrCrCrUdTdT / antisense rArGrGrGrArArGrUrCrCrUrUrCrCrCrCrArGrCdAdG | 53.9% |
| sense rGrGrArGrArArCrUrArCrGrArGrGrArGrUrArUdTdT / antisense rArUrArCrUrCrCrUrCrGrUrArGrUrUrCrUrCrCdAdA | 56.3% |
| sense rGrGrCrArUrCrArArGrGrUrCrUrUrUrCrCrCrAdTdT / antisense rUrGrGrGrArArArGrArCrCrUrUrGrArUrGrCrCdAdT | 57.3% |
| sense rGrGrCrCrArArGrArArGrCrArUrGrCrUrGrGrCdTdT / antisense rGrCrCrArGrCrArUrGrCrUrUrCrUrUrGrGrCrCdAdT | 57.2% |
| sense rGrGrCrCrGrCrCrUrGrCrUrCrUrUrGrGrArGrAdTdT / antisense rUrCrUrCrCrArArGrArGrCrArGrGrCrGrGrCrCdCdG | 69.4% |
| sense rGrGrCrUrArCrUrUrCrCrUrGrArCrCrArArGrAdTdT / antisense rUrCrUrUrGrGrUrCrArGrGrArArGrUrArGrCrCdCdT | 91.7% |
| sense rGrGrGrCrCrCrUrGrGrCrCrArGrUrGrGrCrArCdTdT / antisense rGrUrGrCrCrArCrUrGrGrCrCrArGrGrGrCrCrCdGdA | 43% |
| sense rGrGrGrCrCrGrArArGrCrCrGrGrUrCrGrGrGrCdTdT / antisense rGrCrCrCrGrArCrCrGrGrCrUrUrCrGrGrCrCrCdTdG | 36.4% |
| sense rGrGrGrCrUrGrArGrGrGrUrCrCrCrArUrGrGrCdTdT / antisense rGrCrCrArUrGrGrGrArCrCrCrUrCrArGrCrCrCdCdT | 45.7% |
| sense rGrGrGrGrCrUrGrArGrGrGrUrCrCrCrArUrGrGdTdT / antisense rCrCrArUrGrGrGrArCrCrCrUrCrArGrCrCrCrCdTdC | 42.8% |
| sense rGrGrUrGrArCrGrArCrArCrUrGrArCrCrGrCrAdTdT / antisense rUrGrCrGrGrUrCrArGrUrGrUrCrGrUrCrArCrCdTdC | 88.7% |
| sense rGrUrArUrGrCrArGrCrUrCrGrGrGrCrCrCrGrUdTdT / antisense rArCrGrGrGrCrCrCrGrArGrCrUrGrCrArUrArCdTdC | 47% |
| sense rGrUrCrArCrCrArUrCrGrArGrGrGrCrCrCrUrGdTdT / antisense rCrArGrGrGrCrCrCrUrCrGrArUrGrGrUrGrArCdCdT | 45.1% |
| sense rGrUrGrGrGrCrGrCrCrArArUrGrGrCrGrArGrAdTdT / antisense rUrCrUrCrGrCrCrArUrUrGrGrCrGrCrCrCrArCdGdT | 54.4% |
| sense rUrArArCrCrCrCrGrArGrUrCrUrGrCrArCrUrCdTdT / antisense rGrArGrUrGrCrArGrArCrUrCrGrGrGrGrUrUrAdGdG | 39.5% |
| sense rUrCrArCrCrArUrCrGrArGrGrGrCrCrCrUrGrAdTdT / antisense rUrCrArGrGrGrCrCrCrUrCrGrArUrGrGrUrGrAdCdC | 35.9% |
